Reference: ChEMBL document CHEMBL5321279 (J Med Chem, 2023)
≈ marks a conversion by molar mass, not a printed value.

How the values were obtained:
[1] = Apparent permeability of the compound from apical to basolateral side in human Caco-2 cells incubated for 2 hrs by LC-MS/MS analysis; assay type: ADME, cell-based; conditions: for Papp A→B at 2 h: Caco-2
[2] = Stability of compound in cynomolgus monkey liver S9 fraction assessed as half life at pH 7.4 measured upto 90 mins by LC-MS/MS analysis; assay type: ADME, subcellular, Macaca fascicularis
[3] = Stability of compound in rat gastrointestinal S9 fraction assessed as half life at pH 7.4 measured upto 120 mins by LC-MS/MS analysis; assay type: ADME, subcellular, Gastrointestinal tract
[4] = Aqueous stability of the compound assessed as compound remaining at pH 2 measured at 24 hrs by UPLC analysis; assay type: physicochemical; conditions: aqueous solution, read-out: Stability
[5] = Stability of compound in cynomolgus monkey plasma assessed as half life measured upto 4 hrs by LC-MS/MS analysis; assay type: ADME, cell-free, Macaca fascicularis
[6] = Aqueous stability of the compound assessed as compound remaining at pH 7 measured at 24 hrs by UPLC analysis; assay type: physicochemical; conditions: aqueous solution, read-out: Stability
[7] = Efflux ratio of permeability in human Caco-2 cells from basolateral to apical side over apical to basolateral side in human Caco-2 cells incubated for 2 hrs by LC-MS/MS analysis; assay type: ADME, cell-based; conditions: caco-2, 2 h
[8] = Stability of compound in rat plasma assessed as half life measured upto 4 hrs by LC-MS/MS analysis; assay type: ADME, cell-free
[9] = Stability of compound in human gastrointestinal S9 fraction assessed as half life at pH 7.4 measured upto 120 mins by LC-MS/MS analysis; assay type: ADME, subcellular, Gastrointestinal tract
[10] = Thermodynamic aqueous solubility at pH 2 measured at 72 hrs by UPLC analysis; assay type: physicochemical; conditions: aqueous solution, read-out: Therm_solubility
[11] = Stability of compound in rat liver S9 fraction assessed as half life at pH 7.4 measured upto 90 mins by LC-MS/MS analysis; assay type: ADME, subcellular
[12] = Stability of compound in dog liver S9 fraction assessed as half life at pH 7.4 measured upto 90 mins by LC-MS/MS analysis; assay type: ADME, subcellular, Canis lupus familiaris
[13] = Stability of compound in human plasma assessed as half life measured upto 4 hrs by LC-MS/MS analysis; assay type: ADME, cell-free
[14] = Stability of compound in cynomolgus monkey gastrointestinal S9 fraction assessed as half life at pH 7.4 measured upto 120 mins by LC-MS/MS analysis; assay type: ADME, subcellular, Macaca fascicularis, Gastrointestinal tract
[15] = Thermodynamic aqueous solubility at pH 7 measured at 24 hrs by UPLC analysis; assay type: physicochemical; conditions: aqueous solution, read-out: Therm_solubility
[16] = Stability of compound in dog gastrointestinal S9 fraction assessed as half life at pH 7.4 measured upto 120 mins by LC-MS/MS analysis; assay type: ADME, subcellular, Canis lupus familiaris, Gastrointestinal tract
[17] = Lipophilicity, logD of compound; assay type: physicochemical; conditions: octanol/water
[18] = Stability of compound in human liver S9 fraction assessed as half life at pH 7.4 measured upto 90 mins by LC-MS/MS analysis; assay type: ADME, subcellular
[19] = Stability of compound in dog plasma assessed as half life measured upto 4 hrs by LC-MS/MS analysis; assay type: ADME, cell-free, Canis lupus familiaris
[20] = Cmax in mouse infected with SARS-CoV-2 assessed as prodrug conversion by measuring (2R,3R,4S,5R)-2-(4-aminopyrrolo[2,1-f][1,2,4]triazin-7-yl)-3,4-dihydroxy-5-(hydroxymethyl)tetrahydrofuran-2-carbonitrile at 30 mg/kg, po BID measured after 4 days by LC-MS/MS analysis; assay type: ADME, organism-based; design: dose 30 mg/kg, time 4 day, route po; conditions: in vivo, 96 h
[21] = AUC(0 to 24 hrs) in SARS-CoV-2 infected mouse assessed as prodrug conversion (2R,3R,4S,5R)-2-(4-aminopyrrolo[2,1-f][1,2,4]triazin-7-yl)-3,4-dihydroxy-5-(hydroxymethyl)tetrahydrofuran-2-carbonitrile at 30 mg/kg, po BID measured after 4 days by LC-MS/MS analysis; assay type: ADME, organism-based; design: dose 30 mg/kg, time 4 day, route po; conditions: in vivo, 96 h
[22] = Prodrug conversion in SARS-CoV-2 infected in mouse assessed as (2R,3R,4S,5R)-2-(4-aminopyrrolo[2,1-f][1,2,4]triazin-7-yl)-3,4-dihydroxy-5-(hydroxymethyl)tetrahydrofuran-2-carbonitrile mediated log10 reduction of genomic RNA in lung at 30 mg/kg, po BID measured after 4 days by RT-qPCR analysis; assay type: ADME, organism-based; conditions: in vivo, 96 h, time 4 day
[23] = Cmax in ferret infected with SARS-CoV-2 assessed as prodrug conversion by measuring (2R,3R,4S,5R)-2-(4-aminopyrrolo[2,1-f][1,2,4]triazin-7-yl)-3,4-dihydroxy-5-(hydroxymethyl)tetrahydrofuran-2-carbonitrile at 10 mg/kg, po BID measured after 4 days by LC-MS/MS analysis; assay type: ADME, organism-based, Mustela putorius furo; design: time 4 day, dose 10 mg/kg, route po; conditions: in vivo, 96 h
[24] = Prodrug conversion in SARS-CoV-2 infected in ferret assessed as (2R,3R,4S,5R)-2-(4-aminopyrrolo[2,1-f][1,2,4]triazin-7-yl)-3,4-dihydroxy-5-(hydroxymethyl)tetrahydrofuran-2-carbonitrile mediated log10 reduction of genomic RNA at 10 mg/kg, po BID measured after 4 days by RT-qPCR analysis; assay type: ADME, organism-based, Mustela putorius furo; conditions: in vivo, 96 h, time 4 day
[25] = AUC(0 to 24 hrs) in ferret infected with SARS-CoV-2 assessed as prodrug conversion by measuring (2R,3R,4S,5R)-2-(4-aminopyrrolo[2,1-f][1,2,4]triazin-7-yl)-3,4-dihydroxy-5-(hydroxymethyl)tetrahydrofuran-2-carbonitrile at 10 mg/kg, po BID measured after 4 days by LC-MS/MS analysis; assay type: ADME, organism-based, Mustela putorius furo; design: dose 10 mg/kg, time 4 day, route po; conditions: in vivo, 96 h
[26] = Lipophilicity, logP of compound; assay type: physicochemical; conditions: octanol/water
PBMC [27] = experiment: Cytotoxicity against quiescent human PBMC cells assessed as reduction in cell growth measured after 5 days by CellTiter-Glo assay; assay type: toxicity, cell-based; conditions: pbmc, 120 h, time 5 day
PBMC [28] = experiment: Cytotoxicity against stimulated human PBMC cells assessed as reduction in cell growth measured after 5 days by CellTiter-Glo assay; assay type: toxicity, cell-based; conditions: pbmc, 120 h, time 5 day
HepG2 = experiment: Cytotoxicity against human HepG2 cells assessed as reduction in cell growth measured after 5 days by CellTiter-Glo assay; assay type: toxicity, cell-based; conditions: hepg2, 120 h, time 5 day
MT4 = experiment: Cytotoxicity against human MT4 cells assessed as reduction in cell growth measured after 5 days by CellTiter-Glo assay; assay type: toxicity, cell-based; conditions: mt4, 120 h, time 5 day
PC-3 = experiment: Cytotoxicity against human PC-3 cells assessed as reduction in cell growth measured after 5 days by CellTiter-Glo assay; assay type: toxicity, cell-based; conditions: pc-3, 120 h, time 5 day
MRC5 = experiment: Cytotoxicity against human MRC5 cells assessed as reduction in cell growth measured after 5 days by CellTiter-Glo assay; assay type: toxicity, cell-based; conditions: mrc5, 120 h, time 5 day
Huh-7 = experiment: Cytotoxicity against human Huh-7 cells assessed as reduction in cell growth measured after 5 days by CellTiter-Glo assay; assay type: toxicity, cell-based; conditions: huh-7, 120 h, time 5 day
Hepatocyte = experiment: Cytotoxicity against human primary hepatocytes assessed as reduction in cell growth measured after 5 days by CellTiter-Glo assay; assay type: toxicity, cell-based; conditions: hepatocytes, 120 h, time 5 day
[29] = Cytotoxicity against human NHBE-T cells assessed as reduction in cell growth measured after 5 days by CellTiter-Glo assay; assay type: toxicity, cell-based; conditions: nhbe-t, 120 h, time 5 day

SMILES	Papp A→B at 2 h [1] [×10⁻⁶ cm/s]	half-life at […] [2] [min]	half-life [3] [min]	remaining at 24 h [4] [%]	half-life [5] [min]	remaining at 24 h [6] [%]	Ratio [7]	half-life [8] [min]	half-life [9] [min]	solubility thermodynamic at 72 h [10] [µg/mL]	half-life at […] [11] [min]	half-life at […] [12] [min]	half-life [13] [min]	half-life [14] [min]	solubility thermodynamic at 24 h [15] [µg/mL]	half-life [16] [min]	logD [17]	half-life at […] [18] [min]	half-life [19] [min]	other results
CC(=O)OC[C@H]1O[C@@](C#N)(c2ccc3c(N)ncnn23)[C@H](OC(C)=O)[C@@H]1OC(C)=O	4	< 2	> 2	82	9.2	79	3	< 2	< 2	≥ 40000	< 2	< 2	4.7	< 2	1400 (≈ 3.35 mM)	16	1.5	< 2	111	
CC(C)C(=O)OC[C@H]1O[C@@](C#N)(c2ccc3c(N)ncnn23)[C@H](OC(=O)C(C)C)[C@@H]1OC(=O)C(C)C		< 2	> 2	≥ 96	7.2	≥ 98	< 1	< 2	< 2	600 (≈ 1.2 mM)	2.9	< 2	5.5	< 2	< 10	< 2	3.5	< 2	182	Papp ([1]; caco-2, 2 h): 22 10^-6 cm/s; Cmax [20]: 13 µM; AUC [21]: 95 µM·h; log(activity) [22]: -3.29; Cmax [23]: 5 µM; log(activity) [24]: -1.98; AUC [25]: 54 µM·h
CC(=O)OC[C@H]1O[C@@](C#N)(c2ccc3c(N)ncnn23)[C@H](O)[C@@H]1O	1.4	5.3	> 2	89	146	96	0.5	3	28		10	25	70	38	1000 (≈ 3 mM)	226	< 0.3	19	564	
[N-]=[N+]=N[C@]1(CO)O[C@@H](n2ccc(N)nc2=O)[C@H](O)[C@@H]1O [4'-AZIDOCYTIDINE]																				logP [26]: > 2
COc1ccc(C[C@H](N)C(=O)N[C@H]2[C@@H](O)[C@H](n3cnc4c(N(C)C)ncnc43)O[C@@H]2CO)cc1 [PUROMYCIN]																				CC50 (PBMC [27]): 5050 nM; CC50 (PBMC [28]): 1100 nM; CC50 (HepG2): 780 nM; CC50 (MT4): 120 nM; CC50 (PC-3): 470 nM; CC50 (MRC5): 320 nM; CC50 (Huh-7): 430 nM; CC50 (Hepatocyte): 1100 nM; CC50 [29]: 600 nM
